In patent publication US9492368B2, “External preparation for skin” (HAYASHIBARA CO., LTD., priority 2011, dated 2016):
Marks after values point to notes of the source that are not given here.

Experiments:
[1] = tested on: three-dimensional skin model (EPI-200 Kit); experiment: Residual property in three-dimensional skin model (composition of permeated solution after 24 hours); conditions: 0.1% test sample in 30% ethanol
Protocol: (§1) “EPI Assay Medium”, a product name of EPI100 assay medium commercialized by Kurabo Industries Ltd., Okayama, Japan, was added to “12-WELL MULTI-MICROPLATE”, a product name of 12-well plate commercialized by Becton, Dickinson and Company, NJ, USA, in a volume of 0.33 ml/well; and “EPI-200 Kit”, a product name of a three-dimensional skin model cup, commercialized by Kanebo Cosmetics Inc., Tokyo, Japan, was transferred to each well. […] 5′-Glucosyladenosine prepared by the method in Experiment 1-2,3′-glucosyladenosine prepared by the method in Experiment 2, or adenosine was dissolved in 30% ethanol to give a final concentration of 0.1%, and 0.1 ml of each of the resulting solutions was added to each of the skin model cup. After incubating at 37° C. for 24 hours in a 5% CO2 condition, sample solutions (media in wells) were collected, subjected to ultrafiltration with “[sequence] 0.5 BIOMAX-5 MEMBRANE”, a product name of membrane commercialized by Nihon Millipore K.K., Tokyo, Japan, and diluted with the mobile phase. The diluent was subjected to HPLC under the following conditions and determined for the contents of 5′- and 3′-glucosyladenosines with an alternatively prepared standard curve.
<Conditions for HPLC Analysis>
(§2) Apparatus: an HPLC Pump, MODEL 510; a pump controller, MODEL 680; an autoinjector, MODEL 712; a detector, MODEL 2487; a data processing (quantity calculation), EMPOWER 2 SOFTWARRE, commercialized by Nihon Millipore K.K., Tokyo, Japan;
(§3) Column: “YMC-PACK ODS AQ-303”, a product name of an ODS column, ø4.6 mm×250 mm, commercialized by YMC Co., Ltd., Kyoto, Japan;
(§4) Mobile phase: {20 mM Acetic acid-ammonium acetate buffer (pH 3.5)}/(methanol)=92/8 (v/v);
Detection wavelength: 260 nm;
Injection volume: 10 μl; and
Column temperature: 40° C.

[2] = tested on: keratinocyte growth factor (KGF); experiment: Expression of keratinocyte growth factor in NHDF cells (real-time PCR); assay type: cell-based, human; conditions: four hours, control = 1.0
Text: The confirmation that glucosyladenosines have an action of enhancing the differentiation of keratinocytes in Experiments 5 and 7 led to an examination on keratinocyte proliferation. The effects of 5′- and […] on the expression of keratinocyte growth factor (KGF) in normal human dermal fibroblasts (NHDF) were compared. […] After the culture, the supernatant in each well was removed and added with 5′-glucosyladenosine obtained by the method in Experiment 1-2 or 3′-glucosyladenosine obtained by the method in Experiment 2, which were respectively diluted with a DMEM medium supplemented with 1 v/v % FCS to give respective concentrations of 0.15 mM and 1.5 mM. A DMEM medium supplemented with 1 v/v % FCS but with no glucosyladenosines was used as a control. The cells were cultured at 37° C. for four hours under a 5 v/v % CO2 condition, washed twice with PBS(−) after removing the culture supernatants in each well by aspiration, and fed to an RNA extraction.
“QIA shledder+RNeasy Mini Kit”, a product name of a commercialized RNA extraction kit, produced by GIAGEN Benelux B.V., Netherlands, was used to extract the total RNAs. The handlings followed the operating instructions attached to the kit. Using “Super Script VILO cDNA Synthesis Kit”, a product name of a cDNA synthesis kit, commercialized by Invitrogen Corporation, CA, USA, an RT reaction was conducted under the conditions of treating a mixture of 10.5 μl of RNA, three microliters of 5×VILO reaction mix, 1.5 μl of 10× enzyme mix (15 μl in total) at 25° C. for 10 min, 42° C. for 60 min, and then 85° C. for five minutes.
Using “LightCycler 480 SYBR Green I Master”, a product name of Roche Diagnostics K.K., Tokyo, Japan, a real-time PCR reaction was conducted by mixing 1.8 μl of water, 6.0 μl of master mix, 0.6 μl of primer L (10 μM), 0.6 μl of primer R (10 μM), and 3.0 μl of template (12.0 μl in total), and treated with 45 cycles of a successive incubation cycle at 95° C. for 10 sec, 60° C. for 10 sec, and 72° C. for 15 sec). The KGF expression level in each sample was calculated from a standard curve and calibrated with the expression level of an internal standard (18s rRNA). Relative value for each sample was determined, when the expression level of the control was regarded as 1.0, and evaluated. The primers used were of Table 9.

[3] = tested on: profilaggrin (PFG); experiment: Real-time PCR gene expression in NHEK cells: profilaggrin; assay type: cell-based, human; conditions: 1 μM, seven days, relative to control = 1.00
Protocol: Since glucosyladenosines were confirmed in Experiment 5 to have an action of enhancing the differentiation of keratinocytes effective for skin improvement, a test for examining the change of the expression level of a molecular marker gene of keratinocytes, as an index, was performed as follows using a real-time PCR analysis method to examine the above action in more detail. The expression level of a ceramide-synthesis-related gene was also studied to examine the influence of glucosyladenosines on ceramide synthesis that had been known to have an important role in moisturizing the skin and barrier function of the skin and deemed to be effective for skin improvement. As genes for analysis, profilaggrin (PFG: a later differentiation marker) and involucrin (INV: an early differentiation marker) as differentiation markers of keratinocytes and β-glucocerebrosidase (GCase) and sphingomyelinase (SMase) as ceramide-synthesis-related enzymes were selected, and a gene for cyclophilin B (CypB) as an internal standard upon practicing PCR reaction was used (see FIG. 7). NHEK cells were inoculated to 6-well plate coated with collagen in an amount of 8×10^4 cells/1.5 ml/well, cultured with EpiLife medium, and cultured at 37° C. for two days under a 5 v/v % CO2 condition. Thereafter, the culture medium was removed, and the resulting cells were added with a fresh EpiLife medium containing 5′-glucosyladenosine, 3′-glucosyladenosine, or adenosine in a volume of 1.5 ml/well (giving a final concentration of 1 μM of any one of glucosyladenosines and adenosine), and cultured for seven days while replacing the medium with a fresh one containing any one of glucosyladenosines and adenosine in a volume of 1.5 ml/well every other day. After completion of the culture, each well was washed twice with PBS(K−), followed by adding 0.2 ml/well of 0.025% by mass of trypsin/EDTA solution to the resulting cells and allowing the cells to stand at an ambient temperature for five minutes to detach them from the plates. […]

[4] = tested on: three-dimensional skin model (EPI-200 Kit); conditions: human, 24 h, 0.1 %
Protocol: as §1
<Conditions for HPLC Analysis>
as §2, §3, §4
Detection wavelength: 260 nm;
Injection volume: 10 μl; and
Column temperature: 40° C.

Row | SMILES | Composition of permeated solution: 5′-glucosyladenosine [1] [%] | Concentration of 5′-glucosyladenosine in permeated solution [1] [µM] | Relative expression level of KGF ([2]; 0.15 mM) | Relative expression level of KGF ([2]; 1.5 mM) | Gene expression level PFG [3] | Composition of permeated solution: adenosine [4] [%] | Composition of permeated solution: hypoxanthine [4] [%] | Composition of permeated solution: inosine [4] [%] | Concentration of adenosine in permeated solution [4] [nM] | Concentration of hypoxanthine in permeated solution [4] [µM] | Concentration of inosine in permeated solution [4] [µM] | Composition of permeated solution: 3′-glucosyladenosine [1] [%] | Concentration of 3′-glucosyladenosine in permeated solution [1] [µM]
1 | Nc1ncnc2c1ncn2[C@@H]1O[C@H](CO[C@H]2O[C@H](CO)[C@@H](O)[C@H](O)[C@H]2O)[C@@H](O)[C@H]1O [5′-Glucosyladenosine, α-D-glucopyranosyl-(1→5′)-adenosine] | 65 | 60 | 0.9 | 1.4 | 2.54** |  |  |  |  |  |  |  | 
2 | Nc1ncnc2c1ncn2[C@@H]1O[C@H](CO)[C@@H](O)[C@H]1O [Adenosine, reference compound] |  |  |  |  | 1.41 | 0 | 77 | 23 | 0 | 187 | 55 |  | 
3 | Nc1ncnc2c1ncn2[C@@H]1O[C@H](CO)[C@@H](O[C@H]2O[C@H](CO)[C@@H](O)[C@H](O)[C@H]2O)[C@H]1O [3′-Glucosyladenosine, α-D-glucopyranosyl-(1→3′)-adenosine] |  |  | 2.3 | 2.7 | 2.03* |  |  |  |  |  |  | 27 | 25
